Here are results for one compound from patent US20060204975A1, “Markers for cyclin dependent kinase inhibitors” (Cyclacel Limited, priority 2003, published 2006).

One data set concerns the target CDK 9 (Homo sapiens, UniProt P50750). The settings on record: cited from earlier work.
Data set [1] in a line: Pharmacokinetic analysis of breast cancer patient 02-2-01 (08). In kind it is in vivo, human. Conditions: 600 mg b.i.d. oral, Day 1. The method, then: Effects on PNUTS and other target genes in vitro has been observed with concentrations of 7.5-15 μM for 1.5-3 hours, which is within the range represented here.
A further data set deals with PNUTS. Put plainly: QPCR of PNUTS in whole blood (PAXgene) exposed in vitro to CYC202. In kind it is cell-based, human. The settings on record: whole blood of several donors exposed in vitro to 30 μM CYC202 for […]. The method, then:
In addition, RNA from whole blood samples was analysed by QPCR. Blood from volunteers was collected into Vacutainer Heparin CPT tubes. […] The blood was then transferred into PAXgene tubes (PreAnalytiX), inverted several times, and placed at −20° C. after an initial incubation of 2 hours at room temperature to allow lysis of the cells. When ready for analysis, blood was left to thaw at room temperature for approximately 2 hours, and then processed according to the manufacturer's instructions. The optional DNase digestion step was included. RNA samples were quantified and then used directly in QPCR assays.
In addition, where the expression levels of housekeeper genes have been measured in these samples, the data has been normalized using a derivative of this formula: 2^ΔCttarget/2^ΔCthousekeeper Results
Blood from volunteers was collected into Vacutainer Heparin CPT tubes at Hawkhill Medical Centre, Dundee and treated as described above in Example 2. […]
Blood that had been stored for various lengths of time and under various storage conditions was left to thaw at room temperature for approximately 2 hours, and then processed according to the manufacturer's instructions. […] RNA samples were quantified and then used directly in QPCR assays.

The subject of a further data set is A549 cells. Put plainly: Affymetrix microarray gene expression in CYC202 treated A549 cells. In kind it is cell-based, human. The settings on record: 45 and 75 micromolar. The procedure: HT29 and A549 cells, which are derived from human colon and lung tumours respectively, were seeded at approximately 20% confluency, which was equivalent to 1.5×10^6 cells per 10 cm plate in DMEM containing 10% FCS, so that they were actively proliferating upon treatment with the compound the following day.
[…]. RNA was extracted from the A549 cells used in the microarray experiment using TRIZOL reagent (Invitrogen) according to the manufacturer's instructions. For all other cell lines, total RNA was extracted from the cultures with the RNeasy Midi Kit (Qiagen, Hilden, Germany) according to the manufacturer's instructions. […] RNA was eluted in RNase-free water and quantified using RiboGreen (Molecular Probes, Leiden, The Netherlands). […]
RNA extracted from A549 cells was used with the Hu Gene FL Cartridge while RNA from HT-29 cells and PBMC was loaded onto Hu Gene U133A Cartridges. […] The biotinylated cRNA was detected with an antibody amplification step using normal goat IgG as blocking reagent, final concentration 0.1 mg/ml (Sigma) and biotinylated anti-streptavidin antibody (goat), final concentration […] (Vector Laboratories). […] The readings from the quantitative scanning were analysed by the Affymetrix Gene Expression Analysis Software. […]
Data from the Affymetrix Chips were analysed at individual time points following CYC202 treatment.

The subject of a further data set is 7 kDa biomarker cluster. Description: SELDI-TOF-MS plasma proteomic profile, 7 kDa biomarker cluster. Type of data set: in vivo, human. The settings on record: 16 Phase 1b patients, last day of treatment. The method, then:
(§1) All samples were stored at −80° C. in aliquots.
(§2) Proteins were then detected with the ProteinChip® Reader.

A further data set has as its system Apolipoprotein A1. Description: SELDI-TOF-MS plasma proteomic profile, 28 kDa biomarker cluster. In kind it is in vivo, human. Conditions: plasma fraction 4, SAX chip pH9, 16 Phase 1b patients. The procedure:
as §1, §2

Another data set deals with CDK 7 (Homo sapiens, UniProt P50613). The settings on record: cited from earlier work.
In a further data set the test system is cell cycle progression. Conditions: cited from earlier work.

CDK 7, sequence (P50613 whole entry, species assumed): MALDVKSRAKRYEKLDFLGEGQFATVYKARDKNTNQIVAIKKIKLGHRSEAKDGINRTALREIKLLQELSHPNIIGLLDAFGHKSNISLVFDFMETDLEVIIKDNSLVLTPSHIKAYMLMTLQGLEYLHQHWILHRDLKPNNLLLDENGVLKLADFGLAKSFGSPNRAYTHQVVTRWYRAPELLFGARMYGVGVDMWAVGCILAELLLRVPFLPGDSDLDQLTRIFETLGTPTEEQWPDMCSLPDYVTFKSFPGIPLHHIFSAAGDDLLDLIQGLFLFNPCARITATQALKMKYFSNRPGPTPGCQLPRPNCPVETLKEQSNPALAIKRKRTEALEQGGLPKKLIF
CDK 7, sequence (P51946 whole entry partner, species assumed): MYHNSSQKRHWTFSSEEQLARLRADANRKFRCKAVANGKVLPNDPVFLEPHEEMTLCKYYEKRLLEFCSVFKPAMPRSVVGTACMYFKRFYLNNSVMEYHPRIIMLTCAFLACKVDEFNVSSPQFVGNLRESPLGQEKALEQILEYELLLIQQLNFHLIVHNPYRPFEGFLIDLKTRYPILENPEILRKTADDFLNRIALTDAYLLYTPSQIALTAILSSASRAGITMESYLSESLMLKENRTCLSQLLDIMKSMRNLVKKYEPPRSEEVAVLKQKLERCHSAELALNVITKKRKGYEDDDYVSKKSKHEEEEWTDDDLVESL
CDK 9, sequence (P50750 whole entry, species assumed): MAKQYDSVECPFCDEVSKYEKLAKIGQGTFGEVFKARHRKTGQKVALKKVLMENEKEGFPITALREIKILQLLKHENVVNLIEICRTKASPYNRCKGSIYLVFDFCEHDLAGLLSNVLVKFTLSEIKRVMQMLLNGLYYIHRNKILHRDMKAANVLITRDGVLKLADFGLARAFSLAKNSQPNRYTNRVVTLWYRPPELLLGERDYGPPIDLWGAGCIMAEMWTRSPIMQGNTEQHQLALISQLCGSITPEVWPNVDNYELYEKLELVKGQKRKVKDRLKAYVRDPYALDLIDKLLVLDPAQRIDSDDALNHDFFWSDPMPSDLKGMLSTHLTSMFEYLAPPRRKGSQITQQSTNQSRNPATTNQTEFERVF
CDK 9, sequence (O60563 whole entry partner, species assumed): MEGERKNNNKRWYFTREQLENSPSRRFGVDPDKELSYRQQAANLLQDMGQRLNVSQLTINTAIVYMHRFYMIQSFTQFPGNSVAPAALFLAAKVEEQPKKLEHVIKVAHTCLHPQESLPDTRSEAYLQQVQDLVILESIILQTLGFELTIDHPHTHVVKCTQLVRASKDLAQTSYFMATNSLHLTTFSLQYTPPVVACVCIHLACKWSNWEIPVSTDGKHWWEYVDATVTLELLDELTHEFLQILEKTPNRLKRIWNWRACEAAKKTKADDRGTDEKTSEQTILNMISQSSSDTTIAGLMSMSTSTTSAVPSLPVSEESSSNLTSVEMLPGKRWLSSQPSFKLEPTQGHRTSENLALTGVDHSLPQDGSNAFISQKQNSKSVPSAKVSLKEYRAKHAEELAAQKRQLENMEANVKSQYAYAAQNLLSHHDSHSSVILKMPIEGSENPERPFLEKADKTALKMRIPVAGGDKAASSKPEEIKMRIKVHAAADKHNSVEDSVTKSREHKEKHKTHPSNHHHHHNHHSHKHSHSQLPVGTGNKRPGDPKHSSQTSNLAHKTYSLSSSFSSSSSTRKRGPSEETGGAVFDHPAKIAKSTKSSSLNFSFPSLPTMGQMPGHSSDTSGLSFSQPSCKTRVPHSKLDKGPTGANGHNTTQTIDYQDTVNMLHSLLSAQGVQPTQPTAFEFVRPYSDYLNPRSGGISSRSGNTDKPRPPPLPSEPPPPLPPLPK

Take `CC[C@H](CO)Nc1nc(NCc2ccccc2)c2ncn(C(C)C)c2n1` [CYC202, 2-(R)-(1-ethyl-2-hydroxyethylamino)-6-benzylamino-9-isopropylpurine]: the “inhibition of CDK 9” value on CDK 9 is reported as “inhibit”. In addition, the “plasma levels of CYC202” value in data set [1] is given as “maintained efficacious levels of CYC202 over several hours”. For the same compound, in the data set on PNUTS, the “expression of PNUTS normalised to housekeeper (HPRT)” value is on record as “reproducibly down-regulated”. For the same compound, the “gene expression (microarray, genes of FIG. 9/11)” value with A549 cells (2 hr) is “significantly down regulated”. Also, the “gene expression (microarray, genes of FIG. 10/12)” value in the data set on A549 cells (4 hr) is given as “significantly down regulated”. For the same compound, the “normalised intensity M/Z 6984, after treatment group” value in the data set on 7 kDa biomarker cluster (neat plasma, CM10 chip, other group 3.1+/−1.2, p=0.0000014) is recorded as 42.2+/−11.8. Also, the “normalised intensity M/Z 6787, after treatment group” value with 7 kDa biomarker cluster (neat plasma, CM10 chip, other group 5.6+/−1.9, p=0.0000014) is listed as 27.5+/−10.4. Also, the “normalised intensity M/Z 6998, after treatment group” value in the data set on 7 kDa biomarker cluster (plasma fraction 6, H50 chip, other group 2.1+/−0.7, p=0.0000031) was 42.0+/−9.1. Besides, the “normalised intensity M/Z 6799, after treatment group” value with 7 kDa biomarker cluster (plasma fraction 6, H50 chip, other group 2.9+/−1.2, p=0.0000031) is recorded as 29.1+/−8.1. Moreover, the “normalised intensity M/Z 28126, after treatment group” value in the data set with Apolipoprotein A1 (last day of treatment, before treatment 32.0+/−9.6, p=0.0058) is reported as 20.4+/−9.9. Also, the “normalised intensity M/Z 27923, after treatment group” value with Apolipoprotein A1 (last day of treatment, before treatment 50.6+/−11.8, p=0.00097) is recorded as 31.8+/−13.7. Also, the “change of marker M/Z 28799 after vs before treatment” value in the data set on Apolipoprotein A1 (p=0.19) is “not deemed to be statistically significant”. Moreover, in the data set with Apolipoprotein A1 (p=0.95), the “change of marker M/Z 28292 after vs before treatment” value was “not deemed to be statistically significant”. The “inhibition of CDK 7” value on CDK 7 was “inhibit”. Further, the “effect on cell cycle progression” value in the data set with cell cycle progression is “block cell cycle progression in late G1/early S and in M-phase”.
